Each compound was assayed against T1, TNF-α (Homo sapiens, UniProt P01375) (assay: TNF-α Induced HEK Blue Cellular Assay (secreted alkaline phosphatase expression, QUANTI-Blue)). Settings: HEK Blue TNFα reporter cells; TNF-α 100 μg/ml; 24 hrs at 37° C.; inhibition of secreted alkaline phosphatase; read-out: IC50 value.
T1 construct: purchased R&D 210-TA-020/CF
Type: cell-based
Summary of the method: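 Compound was serially diluted from […] to 0.5 nM final, then incubated with 10,000 HEK Blue TNFα reporter cells per well and […] TNF-α for 24 h at 37° C. SEAP output was read by QUANTI-Blue absorbance at 620 nm. Inhibition was background-corrected against DMSO controls with and without stimulation, and IC50 was fitted with a 4-parameter logistic equation.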

T1 sequence (P01375 77-233 limits assumed): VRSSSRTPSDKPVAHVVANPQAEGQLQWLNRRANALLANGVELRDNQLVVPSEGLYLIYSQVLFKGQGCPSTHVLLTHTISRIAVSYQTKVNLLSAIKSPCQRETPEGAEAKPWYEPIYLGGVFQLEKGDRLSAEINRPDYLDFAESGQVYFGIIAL

Row | Structure (SMILES) | IC50 [nM]
1 | [2H]C([2H])([2H])N1C(=O)c2cccc(OC(F)F)c2[C@H]2C[C@@H]1c1nc3ccc(C#CCCCC#N)cc3n12 [Example 86, 6-((7R,14R)-1-(difluoromethoxy)-6-(methyl-d3)-5-oxo-5,6,7,14-tetrahydro-7,14-methanobenzo[f]benzo[4,5]imidazo[1,2-a][1,4]diazocin-11-yl)hex-5-ynenitrile] | < 100
2 | [2H]C([2H])([2H])N1C(=O)c2cccc(OC(F)F)c2[C@H]2C[C@@H]1c1nc3ccc(C#CC4CCNC4)cc3n12 (stereo partly drawn) [Example 71, (7R,14R)-1-(difluoromethoxy)-6-(methyl-d3)-11-(pyrrolidin-3-ylethynyl)-6,7-dihydro-7,14-methanobenzo[f]benzo[4,5]imidazo[1,2-a][1,4]diazocin-5(14H)-one] | 100 to 1000
3 | [2H]C([2H])([2H])N1C(=O)c2cccc(OC(F)F)c2[C@H]2C[C@@H]1c1nc3ccc(C#CCCCC)cc3n12 [Example 91, (7R,14R)-1-(difluoromethoxy)-11-(hex-1-yn-1-yl)-6-(methyl-d3)-6,7-dihydro-7,14-methanobenzo[f]benzo[4,5]imidazo[1,2-a][1,4]diazocin-5(14H)-one] | < 100
4 | [2H]C([2H])([2H])N1C(=O)c2cccc(OC(F)F)c2[C@H]2C[C@@H]1c1nc3ccc(C#CC4(O)CCC4)cc3n12 [Example 35, (7R,14R)-1-(difluoromethoxy)-11-((1-hydroxycyclobutyl)ethynyl)-6-(methyl-d3)-6,7-dihydro-7,14-methanobenzo[f]benzo[4,5]imidazo[1,2-a][1,4]diazocin-5(14H)-one] | 10000 to 30000
5 | [2H]C([2H])([2H])N1C(=O)c2cccc(OC(F)F)c2[C@H]2C[C@@H]1c1nc3ccc(C#CCCC(=O)O)cc3n12 [Example 104, 5-((7R,14R)-1-(difluoromethoxy)-6-(methyl-d3)-5-oxo-5,6,7,14-tetrahydro-7,14-methanobenzo[f]benzo[4,5]imidazo[1,2-a][1,4]diazocin-11-yl)pent-4-ynoic Acid] | 10000 to 30000
6 | [2H]C([2H])([2H])N1C(=O)c2cccc(OC(F)F)c2[C@H]2C[C@@H]1c1nc3ccc(C#CC)cc3n12 [Example 39, (7R,14R)-1-(difluoromethoxy)-6-(methyl-d3)-11-(prop-1-yn-1-yl)-6,7-dihydro-7,14-methanobenzo[f]benzo[4,5]imidazo[1,2-a][1,4]diazocin-5(14H)-one] | < 100
7 | [2H]C([2H])([2H])N1C(=O)c2cccc(OC(F)F)c2[C@H]2C[C@@H]1c1nc3ccc(C#Cc4cnoc4)cc3n12 [Example 41, (7R,14R)-1-(difluoromethoxy)-11-(isoxazol-4-ylethynyl)-6-(methyl-d3)-6,7-dihydro-7,14-methanobenzo[f]benzo[4,5]imidazo[1,2-a][1,4]diazocin-5(14H)-one] | < 100
8 | [2H]C([2H])([2H])N1C(=O)c2cccc(OC(F)F)c2[C@H]2C[C@@H]1c1nc3ccc(C#Cc4cnc(C)nc4)cc3n12 [Example 21, (7R,14R)-1-(difluoromethoxy)-6-(methyl-d3)-11-((2-methylpyrimidin-5-yl)ethynyl)-6,7-dihydro-7,14-methanobenzo[f]benzo[4,5]imidazo[1,2-a][1,4]diazocin-5(14H)-one] | < 100
9 | [2H]C([2H])([2H])N1C(=O)c2cccc(OC(F)F)c2[C@H]2C[C@@H]1c1nc3ccc(C#Cc4cnccn4)cc3n12 [Example 22, (7R,14R)-1-(difluoromethoxy)-6-(methyl-d3)-11-(pyrazin-2-ylethynyl)-6,7-dihydro-7,14-methanobenzo[f]benzo[4,5]imidazo[1,2-a][1,4]diazocin-5(14H)-one] | < 100

Second part, the compound after the results:

Row | IC50 [nM] | Structure (SMILES)
10 | < 100 | [2H]C([2H])([2H])N1C(=O)c2cccc(OC(F)F)c2[C@H]2C[C@@H]1c1nc3ccc(C#CC4CN(C5COC5)C4)cc3n12 [Example 224, (7R,14R)-1-(difluoromethoxy)-6-(methyl-d3)-11-((1-(oxetan-3-yl)azetidin-3-yl)ethynyl)-6,7-dihydro-7,14-methanobenzo[f]benzo[4,5]imidazo[1,2-a][1,4]diazocin-5(14H)-one]
11 | 100 to 1000 | [2H]C([2H])([2H])N1C(=O)c2cccc(OC(F)F)c2[C@H]2C[C@@H]1c1nc3ccc(C#CC4CCN(C(=O)C(C)(C)O)C4)cc3n12 (stereo partly drawn) [Example 202, (7R,14R)-1-(difluoromethoxy)-11-((1-(2-hydroxy-2-methylpropanoyl)pyrrolidin-3-yl)ethynyl)-6-(methyl-d3)-6,7-dihydro-7,14-methanobenzo[f]benzo[4,5]imidazo[1,2-a][1,4]diazocin-5(14H)-one]
12 | < 100 | [2H]C([2H])([2H])N1C(=O)c2cccc(OC(F)F)c2[C@H]2C[C@@H]1c1nc3ccc(C#CC4CCCN(C(=O)C5CC5)C4)cc3n12 (stereo partly drawn) [Example 184, (7R,14R)-11-((1-(cyclopropanecarbonyl)piperidin-3-yl)ethynyl)-1-(difluoromethoxy)-6-(methyl-d3)-6,7-dihydro-7,14-methanobenzo[f]benzo[4,5]imidazo[1,2-a][1,4]diazocin-5(14H)-one]
13 | < 100 | [2H]C([2H])([2H])N1C(=O)c2cccc(OC(F)F)c2[C@H]2C[C@@H]1c1nc3ccc(C#Cc4nnc(NC(=O)OC(C)(C)C)s4)cc3n12 [Example 261, tert-butyl (5-(((7R,14R)-1-(difluoromethoxy)-6-(methyl-d3)-5-oxo-5,6,7,14-tetrahydro-7,14-methanobenzo[f]benzo[4,5]imidazo[1,2-a][1,4]diazocin-11-yl)ethynyl)-1,3,4-thiadiazol-2-yl)carbamate]
14 | < 100 | [2H]C([2H])([2H])N1C(=O)c2cccc(OC(F)F)c2[C@H]2C[C@@H]1c1nc3ccc(C#CC4CCN(C5COC5)C4)cc3n12 (stereo partly drawn) [Example 237, (7R,14R)-1-(difluoromethoxy)-6-(methyl-d3)-11-((1-(oxetan-3-yl)pyrrolidin-3-yl)ethynyl)-6,7-dihydro-7,14-methanobenzo[f]benzo[4,5]imidazo[1,2-a][1,4]diazocin-5(14H)-one]
15 | < 100 | [2H]C([2H])([2H])N1C(=O)c2cccc(OC(F)F)c2[C@H]2C[C@@H]1c1nc3c(F)cc(C#CC4CC4)cc3n12 [Example 175, (7R,14R)-11-(cyclopropylethynyl)-1-(difluoromethoxy)-9-fluoro-6-(methyl-d3)-6,7-dihydro-7,14-methanobenzo[f]benzo[4,5]imidazo[1,2-a][1,4]diazocin-5(14H)-one]
16 | < 100 | [2H]C([2H])([2H])N1C(=O)c2cccc(OC(F)F)c2[C@H]2C[C@@H]1c1nc3ccc(C#CCOC(F)F)cc3n12 [Example 131, (7R,14R)-1-(difluoromethoxy)-11-(3-(difluoromethoxy)prop-1-yn-1-yl)-6-(methyl-d3)-6,7-dihydro-7,14-methanobenzo[f]benzo[4,5]imidazo[1,2-a][1,4]diazocin-5(14H)-one]
17 | 100 to 1000 | [2H]C([2H])([2H])N1C(=O)c2cccc(OC(F)F)c2[C@H]2C[C@@H]1c1nc3ccc(C#CC4(C)CN(C(=O)C(C)(C)C#N)C4)cc3n12 [Example 157, 3-(3-(((7R,14R)-1-(difluoromethoxy)-6-(methyl-d3)-5-oxo-5,6,7,14-tetrahydro-7,14-methanobenzo[f]benzo[4,5]imidazo[1,2-a][1,4]diazocin-11-yl)ethynyl)-3-methylazetidin-1-yl)-2,2-dimethyl-3-oxopropanenitrile]
18 | < 100 | [2H]C([2H])([2H])N1C(=O)c2cccc(OC(F)F)c2[C@H]2C[C@@H]1c1nc3ccc(C#CCCN4CCN(C)CC4)cc3n12 [Example 134, (7R,14R)-1-(difluoromethoxy)-6-(methyl-d3)-11-(4-(4-methylpiperazin-1-yl)but-1-yn-1-yl)-6,7-dihydro-7,14-methanobenzo[f]benzo[4,5]imidazo[1,2-a][1,4]diazocin-5(14H)-one]
19 | 100 to 1000 | [2H]C([2H])([2H])N1C(=O)c2cccc(OC(F)F)c2[C@H]2C[C@@H]1c1nc3ccc(C#CC4CN(C5CC5)C4)cc3n12 [Example 223, (7R,14R)-11-((1-cyclopropylazetidin-3-yl)ethynyl)-1-(difluoromethoxy)-6-(methyl-d3)-6,7-dihydro-7,14-methanobenzo[f]benzo[4,5]imidazo[1,2-a][1,4]diazocin-5(14H)-one]
20 | < 100 | [2H]C([2H])([2H])N1C(=O)c2cccc(OC(F)F)c2[C@H]2C[C@@H]1c1nc3ccc(C#CC4CN(C(=O)C5(C)CC5)C4)cc3n12 [Example 166, (7R,14R)-1-(difluoromethoxy)-6-(methyl-d3)-11-((1-(1-methylcyclopropane-1-carbonyl)azetidin-3-yl)ethynyl)-6,7-dihydro-7,14-methanobenzo[f]benzo[4,5]imidazo[1,2-a][1,4]diazocin-5(14H)-one]

Same assay, conditions: IC50 value, HEK Blue TNFα reporter cells; TNF-α 100 μg/ml; 24 hrs at 37° C.; inhibition of secreted alkaline phosphatase

Row | IC50 [nM] | Structure (SMILES)
21 | < 100 | [2H]C([2H])([2H])N1C(=O)c2cccc(OC(F)F)c2[C@H]2C[C@@H]1c1nc3ccc(C#CCNC4CC4)cc3n12 [Example 241, (7R,14R)-11-(3-(cyclopropylamino)prop-1-yn-1-yl)-1-(difluoromethoxy)-6-(methyl-d3)-6,7-dihydro-7,14-methanobenzo[f]benzo[4,5]imidazo[1,2-a][1,4]diazocin-5(14H)-one]
22 | < 100 | [2H]C([2H])([2H])N1C(=O)c2cccc(OC(F)F)c2[C@H]2C[C@@H]1c1nc3ccc(C#CC(=O)OCC)cc3n12 [Example 40, ethyl 3-((7R,14R)-1-(difluoromethoxy)-6-(methyl-d3)-5-oxo-5,6,7,14-tetrahydro-7,14-methanobenzo[f]benzo[4,5]imidazo[1,2-a][1,4]diazocin-11-yl)propiolate]
23 | < 100 | [2H]C([2H])([2H])N1C(=O)c2cccc(OC(F)F)c2[C@H]2C[C@@H]1c1nc3ccc(C#CC4CN(C(C)=O)C4)cc3n12 [Example 120, (7R,14R)-11-((1-acetylazetidin-3-yl)ethynyl)-1-(difluoromethoxy)-6-(methyl-d3)-6,7-dihydro-7,14-methanobenzo[f]benzo[4,5]imidazo[1,2-a][1,4]diazocin-5(14H)-one]
